As usually defined, the LD50 is the dose at which mortality reaches 50%. Read a low LD50 as greater toxicity.

Holding throughout (format): in vivo
Data set [1] in a line: Acute toxicity, LD50 in the rat by the oral route. To be noted: in vivo; for selectivity ratio: ratio acute toxicity LD50 / anorexiant ED50 (therapeutic index), read-out: A/B. From the text: (§1) the acute toxicity, expressed at LD50 in the rat by the oral route (data A);
A short description of data set [2]: Anorexiant activity, food consumption method in the rat, oral (ED50). The note with it: for ED50: read-out: B anorexiant activity ED50; for anorexiant activity (in words): oral. As to the method:
(§2) The anorexiant activity was assessed by the food consumption method in the rat. Female rats weighing 200 g were used, trained for 10 days to eat during a period of 4 hours and selected on the eighth day. After the tenth day, the randomized animals were divided into a "control group", treated solely with the carrier, and into several "treated groups". The treatment was effected by the intraperitoneal route 30 minutes before the presentation of food and the quantity of food consumed in the course of the first hour was then measured. The data in Table I indicate the percentage of inhibition of the food consumption of the animals treated with the compounds according to the present invention with respect to the controls.
The anorexiant activity by the oral route of a product according to the present invention, 4-amino-1-(6-chloro-2-pyridyl)piperidine in the form of mono hydrochloride (CM 57227, compound of Example 1), was tested in accordance with the food consumption method described hereinabove; as well known anorexiant product, fenfluramine, as well as 1-(6-chloro-2-pyridyl)piperazine in the form of monohydrochloride, described in U.S. Pat. No. 4,078,063, and 1-(6-chloro-2-pyrazinyl) piperazine in monohydrochloride form, described in British Pat. No. 1,492,528, were used as reference products.
the anorexiant activity, expressed as oral dose inhibiting by 50% the food consumption (ED50, data B);

A short description of data set [3]: Locomotor activity in the rat, oral (inhibition of spontaneous motility, photoelectric cell). The note with it: for ED50 at 0.5 h / selectivity ratio: in vivo; for ED50 at 0.5 h: female rats, oral dose inhibiting spontaneous motility by 50%, pulses during 10 minutes, 30 minutes after treatment, read-out: C locom. act. inhibition ID50; for selectivity ratio: ratio locomotor ID50 / anorexiant ED50 (therapeutic index), read-out: C/B; for selectivity ratio / inhibition of locomotor activity (in words): oral; for inhibition of locomotor activity (in words): relative to anorexiant ED50. As to the method:
The products were also assessed as a function of their action on the locomotor activity in the rat. To this end, female rats weighing about 200 g were used, to which the compounds were administered by the oral route. After 30 minutes, the treated animals were placed in a cage (80×80 cm) provided with a photoelectric cell for measuring the spontaneous movements, and the number of pulses transmitted to the cell for 10 minutes was recorded. The inhibition of the locomotor activity of each substance (6 to 10 animals per dose) was expressed as a percentage with respect to the controls.
the action on the locomotor activity, expressed as oral dose inhibiting by 50% the spontaneous motility, namely the number of pulses transmitted to the photoelectric cell during the 10 minutes (ID50, data C);

The test system of the next data set is male mice. The data set can be described thus: Acute toxicity, zone of mortality, mice, intraperitoneal. The note with it: i.p., 48 h observation, doses with lowest (at least 1 death) and highest mortality. The protocol:
With respect to their degree of activity, the 4-amino-1-(2-pyridyl)piperidines of the present invention are sparingly toxic and present a good therapeutic index. In Table I hereinbelow, the acute toxicity is expressed in the form of "zone of mortality". 6 batches of male mice weighing about 20 g were used, in which were injected the compounds of the present invention, dissolved or suspended in carboxymethylcellulose, by the intraperitoneal route, at at least four doses for each batch of animals. […] The "mortality zone" is represented by the doses at which the lowest mortality (at least 1 death) and the highest are observed.

Data set [4] in a line: Anorexiant activity, food consumption method in the rat, intraperitoneal. The note with it: female rats, i.p., food consumed in first hour, vs controls. As to the method:
as §2

The next data set deals with cerebral serotonin. In words: Cerebral levels of serotonin after intraperitoneal administration in the rat. To be noted: for Cerebral levels of serotonin % with respect to controls: 60 minutes before sacrifice. The protocol:
Table III below summarises the cerebral levels of serotonin after intraperitoneal administration in the rat of a compound according to the present invention, 4-amino-1-(6-chloro-2-pyridyl) piperidine in monohydrochloride form (CM 57227, product of Example 1). Fenfluramine was used as reference product.
The animals were treated 60 minutes before sacrifice.

The next data set deals with rat. The data set can be described thus: Acute toxicity, LD50 in the rat by the oral route.
Source text: as §1

SMILES strings stand for the structures. Counter-ions that a name gives are not always drawn. Like-named read-outs stand apart in the source and are kept apart here.

With `Clc1cncc(N2CCNCC2)n1` [1-(6-chloro-2-pyrazinyl)piperazine HCl, 1-(6-chloro-2-pyrazinyl) piperazine], in data set [1], the 50% lethal dose (LD50) worked out at 79.6 mg/kg and the selectivity ratio came out at 46.8. Also, in data set [2] (Rattus norvegicus, po), the ED50 was 1.7 mg/kg. Further, the “anorexiant activity (in words)” value in data set [2] (rat) is listed as “very active as anorexiants”. Also, in data set [3], the ED50 at 0.5 h is 0.6 mg/kg, the selectivity ratio is 0.3 and the “inhibition of locomotor activity (in words)” value (“inhibition … (in words)” below) is reported as “inhibit the locomotor activity at doses even lower than the anorexiant ED50”.
In the case of `Clc1cccc(N2CCNCC2)n1` [1-(6-chloro-2-pyridyl)piperazine HCl, 1-(6-chloro-2-pyridyl)piperazine], in data set [1], the LD50 is 174 mg/kg and the selectivity ratio worked out at 48.3. Moreover, the ED50 in data set [2] (Rattus norvegicus, po) is 3.6 mg/kg. The “anorexiant activity (in words)” value in data set [2] (rat) is recorded as “very active as anorexiants”. Also, in data set [3], the ED50 at 0.5 h is 2.1 mg/kg, the selectivity ratio stood at 0.58 and the “inhibition … (in words)” value is given as “inhibit the locomotor activity at doses even lower than the anorexiant ED50”.
`NC1CCN(c2cccc(Cl)n2)CC1` [CM 57227, 4-amino-1-(6-chloro-2-pyridyl) piperidine]: the Mortality zone in the data set with male mice was in the range of 100 to 150 mg/kg. For the same compound, the “Food consumption % inhibition” value in data set [4] (10 mg/kg) is 70.8%. Also, in data set [1], the 50% lethal dose (LD50) was 190 mg/kg and the selectivity ratio worked out at 24.3. Moreover, the ED50 in data set [2] (rat, oral dose inhibiting food consumption by 50%) amounted to 7.8 mg/kg. Besides, in data set [3], the ED50 at 0.5 h came to 60 mg/kg and the selectivity ratio was found to be 7.7. The “Cerebral levels of serotonin % with respect to controls” value (shortened to “Cerebral levels of serotonin %”) in the data set on cerebral serotonin (5 mg/kg i.p.) stood at 105%. Moreover, the “Cerebral levels of serotonin %” value in the data set on cerebral serotonin (10 mg/kg i.p.) turned out to be 120%.
`COc1cccc(N2CCC(N)CC2)n1` [CM 57366, 4-amino-1-(6-methoxy-2-pyridyl) piperidine] showed a Mortality zone in the data set with male mice of 150 to 200 mg/kg. Besides, the “Food consumption % inhibition” value in data set [4] (30 mg/kg) amounted to 67.0%.
`NC1CCN(c2cccc(Sc3ccccc3)n2)CC1` [CM 57369, 4-amino-1-(6-phenylthio-2-pyridyl)piperidine]: the Mortality zone with male mice lay in the range of 150 to 200 mg/kg. In addition, the “Food consumption % inhibition” value in data set [4] (40 mg/kg) is 95.2%.
The matching figures for `Cc1cccc(N2CCC(N)CC2)n1` [CM 57371, 4-amino-1-(6-methyl-2-pyridyl)piperidine]: 175 to 225 mg/kg and 77.2%.
As for `NC1CCN(c2cccc(Br)n2)CC1` [CM 57373, 4-amino-1-(6-bromo-2-pyridyl) piperidine], the Mortality zone in the data set with male mice is 100 to 175 mg/kg. Also, the “Food consumption % inhibition” value in data set [4] (20 mg/kg) worked out at 89.8%.
As for `NC1CCN(c2cccc(OCC(F)(F)F)n2)CC1` [CM 57385, 4-amino-1-[6-(2,2,2-trifluoro)ethoxy-2-pyridyl] piperidine], the Mortality zone in the data set on male mice was 150 to 250 mg/kg. In addition, the “Food consumption % inhibition” value in data set [4] (30 mg/kg) stood at 78.2%.
Turning to `CCNC(C)Cc1cccc(C(F)(F)F)c1` (centres unmarked) [fenfluramine], in data set [1], the selectivity ratio came to 25.2. Also, in the data set with rat, the “A Acute toxicity LD50” value is 100.9 mg/kg and the “therapeutic index A/B, comparison (in words)” value was “almost equal to that of the 4-amino-1-(6-chloro-2-pyridyl)piperidine of the present invention”. Moreover, the ED50 in data set [2] (Rattus norvegicus, po) was 4 mg/kg. In data set [3], the ED50 at 0.5 h stood at 12 mg/kg, the selectivity ratio came out at 3 and the “inhibition … (in words)” value is given as “much greater inhibiting action on the locomotor activity”. Moreover, in the data set on cerebral serotonin (3.75 mg/kg i.p., * significant: p < 0.01), the “Cerebral levels of serotonin %” value worked out at 69%. The “Cerebral levels of serotonin %” value in the data set with cerebral serotonin (7.5 mg/kg i.p., * significant: p < 0.01) came out at 51%. The “Cerebral levels of serotonin %” value in the data set on cerebral serotonin (15 mg/kg i.p., * significant: p < 0.01) is 42%. The “cerebral levels of serotonin (in words)” value with cerebral serotonin (i.p., anorexiant or equivalent doses) is on record as “causes a significant reduction in cerebral serotonin”.

For the origin of these results see US4409228A, “Andrexiant aminopiperidines intermediates thereto and drugs containing same” (Sanofi, priority 1979, dated 1983).
